Data reported in patent publication US12281102B2, “Inhibitors of APOL1 and methods of using same” (Vertex Pharmaceuticals Incorporated, priority 2020, dated 2025).
Structures can show the parent of a compound that is named as a salt.

Each molecule was assayed against T1, G1 APOL1 (Homo sapiens, UniProt O14791, I384M/S342G) (assay: Acute APOL1 Thallium Assay with inducible stable clones of HEK 293 cells). Conditions: HEK 293 T-Rex inducible stable clone expressing G1 APOL1; read-out: Thallium Assay (IC50).
T1 construct: expressed in transfected cells
T1 sequence (O14791 28-398 S342G/I384M): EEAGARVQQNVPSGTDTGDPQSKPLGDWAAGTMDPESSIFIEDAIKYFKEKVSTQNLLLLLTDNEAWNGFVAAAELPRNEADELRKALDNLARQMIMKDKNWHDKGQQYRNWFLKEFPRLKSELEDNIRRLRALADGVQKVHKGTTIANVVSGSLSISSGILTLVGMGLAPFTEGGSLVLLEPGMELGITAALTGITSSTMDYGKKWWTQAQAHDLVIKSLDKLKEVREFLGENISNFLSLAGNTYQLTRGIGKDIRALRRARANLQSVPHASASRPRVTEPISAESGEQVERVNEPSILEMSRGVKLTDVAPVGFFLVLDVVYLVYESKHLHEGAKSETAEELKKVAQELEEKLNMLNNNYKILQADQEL
Format: cell-based
How it was run: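 A tetracycline-inducible HEK293 T-Rex clone (G1 DC3.25) expressing G1 APOL1 was plated at 26,000 cells/well, with tetracycline added at plating to induce expression. Cells were loaded with an AM-ester thallium-sensitive dye and stimulated with Tl+. Pore activity was read as the FLIPR Tetra fluorescence increase from Tl+ influx.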

Compound	IC50 [nM]
Cc1ccc(-c2[nH]c3c(F)cc(F)cc3c2C2CC(N)C2)cc1 (mixture of isomers) [Compound 4, 3-[5,7-difluoro-2-(p-tolyl)-1H-indol-3-yl]cyclobutanamine]	< 250
NC1CC(c2c(-c3ccc(Cl)cc3)[nH]c3c(F)cc(F)cc23)C1 (mixture of isomers) [Compound 10, 3-[2-(4-chlorophenyl)-5,7-difluoro-1H-indol-3-yl]cyclobutanamine]	< 250
COc1ccc(-c2[nH]c3c(F)cc(F)cc3c2C2CC(N)C2)cc1 (mixture of isomers) [Compound 12, 3-[5,7-difluoro-2-(4-methoxyphenyl)-1H-indol-3-yl]cyclobutanamine]	250 to 1000
CC(=O)OC1CC(c2c(-c3ccc(F)cc3)[nH]c3c(F)cc(F)cc23)C1 (mixture of isomers) [Compound 173, [3-[5,7-difluoro-2-(4-fluorophenyl)-1H-indol-3-yl]cyclobutyl]acetate]	250 to 1000
NCC1CC(c2c(-c3ccc(Cl)cc3)[nH]c3c(F)cc(F)cc23)C1 (mixture of isomers) [Compound 176, (3-(2-(4-chlorophenyl)-5,7-difluoro-1H-indol-3-yl)cyclobutyl)methanamine]	< 250
O=S(=O)(NC[C@H]1C[C@H](c2c(-c3ccc(F)cc3)[nH]c3c(F)cc(F)cc32)C1)c1c[nH]cn1 [Compound 415]	250 to 1000
O=S(=O)(NC[C@H]1C[C@H](c2c(-c3ccc(F)cc3)[nH]c3c(F)cc(F)cc32)C1)c1cn[nH]c1 [Compound 416]	> 1000
O=c1ccc2cc(S(=O)(=O)NC[C@H]3C[C@H](c4c(-c5ccc(F)cc5)[nH]c5c(F)cc(F)cc54)C3)ccc2[nH]1 [Compound 417]	> 1000
O=c1[nH]c2ccc(S(=O)(=O)NC[C@H]3C[C@H](c4c(-c5ccc(F)cc5)[nH]c5c(F)cc(F)cc54)C3)cc2[nH]1 [Compound 418]	> 1000
O=S(=O)(NC[C@H]1C[C@H](c2c(-c3ccc(F)cc3)[nH]c3c(F)cc(F)cc32)C1)c1n[nH]c2ncccc12 [Compound 419]	> 1000
O=C1c2ccccc2C(=O)N1CCS(=O)(=O)NC[C@H]1C[C@H](c2c(-c3ccc(F)cc3)[nH]c3c(F)cc(F)cc32)C1 [Compound 420]	> 1000
O=C1C=C(NC[C@H]2C[C@H](c3c(-c4ccc(F)cc4)[nH]c4c(F)cc(F)cc43)C2)C(=O)N1 [Compound 421, 3-((((1r,3r)-3-(5,7-difluoro-2-(4-fluorophenyl)-1H-indol-3-yl)cyclobutyl)methyl)amino)-1H-pyrrole-2,5-dione]	> 1000
O=C1CC(NC[C@H]2C[C@H](c3c(-c4ccc(F)cc4)[nH]c4c(F)cc(F)cc43)C2)C(=O)N1 (stereo partly shown) [Compound 422, 3-((((1r,3r)-3-(5,7-difluoro-2-(4-fluorophenyl)-1H-indol-3-yl)cyclobutyl)methyl)amino)pyrrolidine-2,5-dione]	250 to 1000
Fc1ccc(-c2[nH]c3c(F)cc(F)cc3c2[C@H]2C[C@H](CNc3nnc(C(F)(F)F)s3)C2)cc1 [Compound 423, N-(((1r,3r)-3-(5,7-difluoro-2-(4-fluorophenyl)-1H-indol-3-yl)cyclobutyl)methyl)-5-(trifluoromethyl)-1,3,4-thiadiazol-2-amine]	> 1000
OC[C@H]1C[C@H](c2c(-c3ccc(F)cc3)[nH]c3c(F)cc(F)cc32)C1 [Compound 425, [3-[5,7-difluoro-2-(4-fluorophenyl)-1H-indol-3-yl]cyclobutyl]methanol]	< 250
NCC1(F)CC(c2c(-c3ccc(F)cc3)[nH]c3c(F)cc(F)cc23)C1 (stereo not shown) [Compound 428, [3-[5,7-difluoro-2-(4-fluorophenyl)-1H-indol-3-yl]-1-fluoro-cyclobutyl]methanamine]	250 to 1000
O=C(CO)N[C@H]1C[C@H](c2c(-c3ccc(F)cc3)[nH]c3c(F)cc(F)cc32)C1 [Compound 429, N-((1r,3r)-3-(5,7-difluoro-2-(4-fluorophenyl)-1H-indol-3-yl)cyclobutyl)-2-hydroxyacetamide]	250 to 1000
NC[C@]1(O)C[C@@H](c2c(-c3ccc(F)cc3)[nH]c3c(F)cc(F)cc32)C1 [Compound 430, (1s,3s)-1-(aminomethyl)-3-(5,7-difluoro-2-(4-fluorophenyl)-1H-indol-3-yl)cyclobutan-1-ol]	250 to 1000
CC(=O)NC[C@]1(O)C[C@@H](c2c(-c3ccc(F)cc3)[nH]c3c(F)cc(F)cc32)C1 [Compound 431, N-(((1s,3s)-3-(5,7-difluoro-2-(4-fluorophenyl)-1H-indol-3-yl)-1-hydroxycyclobutyl)methyl)acetamide]	> 1000

Compound	IC50 [nM]
CC(=O)NC1CCC(c2c(-c3ccc(F)cc3)[nH]c3c(F)cc(F)cc23)CC1 (stereo not shown) [Compound 435, N-(4-(5,7-difluoro-2-(4-fluorophenyl)-1H-indol-3-yl)cyclohexyl)acetamide]	> 1000
Fc1ccc(-c2[nH]c3c(F)cc(F)cc3c2CC2CNC2)cc1 [Compound 436, 3-(azetidin-3-ylmethyl)-5,7-difluoro-2-(4-fluorophenyl)-1H-indole]	< 250
O=C(N1CC(Cc2c(-c3ccc(F)cc3)[nH]c3c(F)cc(F)cc23)C1)C1(CO)CC1 [Compound 437, [3-[[5,7-difluoro-2-(4-fluorophenyl)-1H-indol-3-yl]methyl]azetidin-1-yl]-[1-(hydroxymethyl)cyclopropyl]methanone (Trifluoroacetate salt)]	250 to 1000
C[C@H](O)C(=O)N1CC(Cc2c(-c3ccc(F)cc3)[nH]c3c(F)cc(F)cc23)C1 [Compound 438]	< 250
O=C(CCO)N1CC(Cc2c(-c3ccc(F)cc3)[nH]c3c(F)cc(F)cc23)C1 [Compound 439]	< 250
CNCC(=O)N1CC(Cc2c(-c3ccc(F)cc3)[nH]c3c(F)cc(F)cc23)C1 [Compound 440]	250 to 1000
O=C(c1c[nH]cn1)N1CC(c2c(-c3ccc(F)cc3)[nH]c3c(F)cc(F)cc23)C1 [Compound 441, (3-(5,7-difluoro-2-(4-fluorophenyl)-1H-indol-3-yl)azetidin-1-yl)(1H-imidazol-4-yl)methanone]	250 to 1000
O=C(N1CC(c2c(-c3ccc(F)cc3)[nH]c3c(F)cc(F)cc23)C1)C1(O)CC1 [Compound 442, (3-(5,7-difluoro-2-(4-fluorophenyl)-1H-indol-3-yl)azetidin-1-yl)(1-hydroxycyclopropyl)methanone]	250 to 1000
O=C(C1CC1)N1CCC(Cc2c(-c3ccc(F)cc3)[nH]c3c(F)cc(F)cc23)C1 (stereo not shown) [Compound 445, Cyclopropyl-[3-[[5,7-difluoro-2-(4-fluorophenyl)-1H-indol-3-yl]methyl]pyrrolidin-1-yl]methanone]	> 1000
NC(=O)C1(C(=O)N[C@H]2C[C@H](c3c(-c4ccc(F)cc4)[nH]c4c(F)cc(F)cc43)C2)CC1 [Compound 446, N^1′-[3-[5,7-difluoro-2-(4-fluorophenyl)-1H-indol-3-yl]cyclobutyl]cyclopropane-1,1-dicarboxamide]	250 to 1000
NC(=O)CC(=O)N[C@H]1C[C@H](c2c(-c3ccc(F)cc3)[nH]c3c(F)cc(F)cc32)C1 [Compound 447, N′-[3-[5,7-difluoro-2-(4-fluorophenyl)-1H-indol-3-yl]cyclobutyl]propanediamide]	250 to 1000
NC(=O)CNC(=O)N[C@H]1C[C@H](c2c(-c3ccc(F)cc3)[nH]c3c(F)cc(F)cc32)C1 [Compound 448, 2-(3-((1r,3r)-3-(5,7-difluoro-2-(4-fluorophenyl)-1H-indol-3-yl)cyclobutyl)ureido)acetamide]	250 to 1000
NC(=O)CNC(=O)C1CC(Cc2c(-c3ccc(F)cc3)[nH]c3c(F)cc(F)cc23)C1 (stereo not shown) [Compound 449, N-(2-amino-2-oxoethyl)-3-((5,7-difluoro-2-(4-fluorophenyl)-1H-indol-3-yl)methyl)cyclobutane-1-carboxamide]	> 1000
NC(=O)CC(=O)NC[C@H]1C[C@H](c2c(-c3ccc(F)cc3)[nH]c3c(F)cc(F)cc32)C1 [Compound 450, N^1-(((1r,3r)-3-(5,7-difluoro-2-(4-fluorophenyl)-1H-indol-3-yl)cyclobutyl)methyl)malonamide]	250 to 1000
NC(=O)C(=O)NC[C@H]1C[C@H](c2c(-c3ccc(F)cc3)[nH]c3c(F)cc(F)cc32)C1 [Compound 451]	250 to 1000
NC(=O)C1(C(=O)NC[C@H]2C[C@H](c3c(-c4ccc(F)cc4)[nH]c4c(F)cc(F)cc43)C2)CC1 [Compound 452]	> 1000
NC(=O)C(=O)NC[C@H]1C[C@@H](c2c(-c3ccc(F)cc3)[nH]c3c(F)cc(F)cc32)C1 [Compound 453, N^1-(((1s,3s)-3-(5,7-difluoro-2-(4-fluorophenyl)-1H-indol-3-yl)cyclobutyl)methyl)oxalamide]	> 1000
CN(C)C(=O)CCC(=O)NC[C@H]1C[C@@H](c2c(-c3ccc(F)cc3)[nH]c3c(F)cc(F)cc32)C1 [Compound 454, N^1-(((1s,3s)-3-(5,7-difluoro-2-(4-fluorophenyl)-1H-indol-3-yl)cyclobutyl)methyl)-N^4,N^4-dimethylsuccinamide]	> 1000
NC(=O)C(=O)N1CC(Cc2c(-c3ccc(F)cc3)[nH]c3c(F)cc(F)cc23)C1 [Compound 455, 2-[3-[[5,7-difluoro-2-(4-fluorophenyl)-1H-indol-3-yl]methyl]azetidin-1-yl]-2-oxo-acetamide]	250 to 1000

What follows are molecules tested against T2, APOL1 G1 Protein (Homo sapiens, UniProt O14791, I384M/S342G) (assay: Trypanosoma brucei brucei lysis assay using APOL1 recombinant protein (AlamarBlue viability)). Conditions: Trypanosoma brucei brucei lysis with recombinant APOL1 protein.
T2 sequence (O14791 28-398 S342G/I384M): T1 sequence (O14791 28-398 S342G/I384M)
Format: cell-based

Compound	IC50 [nM]
Cc1ccc(-c2[nH]c3c(F)cc(F)cc3c2C2CC(N)C2)cc1 (mixture of isomers) [Compound 4, 3-[5,7-difluoro-2-(p-tolyl)-1H-indol-3-yl]cyclobutanamine]	< 250
NC1CC(c2c(-c3ccc(Cl)cc3)[nH]c3c(F)cc(F)cc23)C1 (mixture of isomers) [Compound 10, 3-[2-(4-chlorophenyl)-5,7-difluoro-1H-indol-3-yl]cyclobutanamine]	< 250
COc1ccc(-c2[nH]c3c(F)cc(F)cc3c2C2CC(N)C2)cc1 (mixture of isomers) [Compound 12, 3-[5,7-difluoro-2-(4-methoxyphenyl)-1H-indol-3-yl]cyclobutanamine]	< 250
CC(=O)OC1CC(c2c(-c3ccc(F)cc3)[nH]c3c(F)cc(F)cc23)C1 (mixture of isomers) [Compound 173, [3-[5,7-difluoro-2-(4-fluorophenyl)-1H-indol-3-yl]cyclobutyl]acetate]	< 250
NCC1CC(c2c(-c3ccc(Cl)cc3)[nH]c3c(F)cc(F)cc23)C1 (mixture of isomers) [Compound 176, (3-(2-(4-chlorophenyl)-5,7-difluoro-1H-indol-3-yl)cyclobutyl)methanamine]	< 250
